This is an account of results in ChEMBL document CHEMBL5291721, “A preclinical secondary pharmacology resource illuminates target-adverse drug reaction associations of marketed drugs” (Nat Commun, 2023).

The target in assay [1] is T1, Alpha-1A adrenergic receptor (Homo sapiens, UniProt P35348).
T1 sequence (P35348 whole entry): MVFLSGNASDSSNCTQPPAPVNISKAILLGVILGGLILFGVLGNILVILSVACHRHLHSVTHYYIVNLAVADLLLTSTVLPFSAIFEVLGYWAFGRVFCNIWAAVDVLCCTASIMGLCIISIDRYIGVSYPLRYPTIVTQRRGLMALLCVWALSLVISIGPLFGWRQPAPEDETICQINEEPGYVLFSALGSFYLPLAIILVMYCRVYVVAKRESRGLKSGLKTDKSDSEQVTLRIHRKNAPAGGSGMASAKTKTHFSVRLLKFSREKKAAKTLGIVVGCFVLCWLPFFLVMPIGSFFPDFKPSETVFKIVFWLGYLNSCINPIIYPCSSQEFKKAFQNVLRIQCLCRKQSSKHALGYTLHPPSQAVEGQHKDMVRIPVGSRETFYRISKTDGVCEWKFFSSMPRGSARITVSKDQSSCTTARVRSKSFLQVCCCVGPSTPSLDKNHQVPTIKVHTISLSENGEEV

The target in assay [2] is Neuronal acetylcholine receptor subunit alpha-4 (Homo sapiens, UniProt P43681).
For assay [3], the target named is Cannabinoid receptor 1 (Homo sapiens, UniProt P21554).
The target of assay [4] is T2, 5-hydroxytryptamine receptor 1A (Homo sapiens, UniProt P08908).
T2 sequence (P08908 whole entry): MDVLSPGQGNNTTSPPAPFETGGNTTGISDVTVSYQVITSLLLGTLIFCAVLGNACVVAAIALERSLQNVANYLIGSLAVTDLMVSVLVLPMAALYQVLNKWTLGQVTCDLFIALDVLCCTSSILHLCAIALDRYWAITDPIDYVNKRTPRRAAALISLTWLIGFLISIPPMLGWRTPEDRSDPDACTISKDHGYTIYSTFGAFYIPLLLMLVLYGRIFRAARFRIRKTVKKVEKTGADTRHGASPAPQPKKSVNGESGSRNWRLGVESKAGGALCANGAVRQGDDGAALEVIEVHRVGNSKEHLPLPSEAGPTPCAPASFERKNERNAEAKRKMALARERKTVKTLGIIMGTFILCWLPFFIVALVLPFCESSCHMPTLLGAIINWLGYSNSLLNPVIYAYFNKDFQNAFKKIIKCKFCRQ
It is filed as functional, cell-based.

For assay [5], the target named is T3, Neuropeptide Y receptor type 1 (Homo sapiens, UniProt P25929).
T3 sequence (P25929 whole entry): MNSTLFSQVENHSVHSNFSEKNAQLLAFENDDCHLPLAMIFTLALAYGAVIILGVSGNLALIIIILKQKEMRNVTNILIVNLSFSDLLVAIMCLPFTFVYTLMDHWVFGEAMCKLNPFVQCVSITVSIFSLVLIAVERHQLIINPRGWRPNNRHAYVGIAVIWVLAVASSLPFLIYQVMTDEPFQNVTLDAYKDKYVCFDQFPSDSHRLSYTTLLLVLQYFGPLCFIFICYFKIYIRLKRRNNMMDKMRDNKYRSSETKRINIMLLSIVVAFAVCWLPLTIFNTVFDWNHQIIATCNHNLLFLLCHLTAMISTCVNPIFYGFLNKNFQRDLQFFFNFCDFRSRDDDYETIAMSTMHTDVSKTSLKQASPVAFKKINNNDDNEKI

For assay [6], the target named is Kappa-type opioid receptor (Homo sapiens, UniProt P41145).
The target of assay [7] is T4, Mu-type opioid receptor (Homo sapiens, UniProt P35372). Nature of the assay: biochemical. The format is functional.
Assay [8] concerns the target Sodium-dependent dopamine transporter (Homo sapiens, UniProt Q01959).
Assay [9] has as its target T4, Mu-type opioid receptor.
The target of assay [10] is T5, Amine oxidase [flavin-containing] A (Homo sapiens, UniProt P21397).
T5 sequence (P21397 whole entry): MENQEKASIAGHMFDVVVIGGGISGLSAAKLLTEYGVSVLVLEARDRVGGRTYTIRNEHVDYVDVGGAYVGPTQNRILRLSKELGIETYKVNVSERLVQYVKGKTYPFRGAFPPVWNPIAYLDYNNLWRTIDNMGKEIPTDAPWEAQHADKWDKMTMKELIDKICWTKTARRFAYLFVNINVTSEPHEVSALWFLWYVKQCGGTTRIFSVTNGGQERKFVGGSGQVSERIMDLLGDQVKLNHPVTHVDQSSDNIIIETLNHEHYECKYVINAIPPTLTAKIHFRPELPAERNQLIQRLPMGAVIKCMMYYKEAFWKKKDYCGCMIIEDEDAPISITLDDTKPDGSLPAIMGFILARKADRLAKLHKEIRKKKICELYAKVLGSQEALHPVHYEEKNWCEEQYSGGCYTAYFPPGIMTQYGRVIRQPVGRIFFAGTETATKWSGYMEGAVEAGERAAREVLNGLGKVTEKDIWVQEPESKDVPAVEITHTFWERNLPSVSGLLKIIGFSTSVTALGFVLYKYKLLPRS
It is filed as functional.

The target in assay [11] is T1, Alpha-1A adrenergic receptor. It is filed as functional, cell-based.
In assay [12] the target is Beta-2 adrenergic receptor (Homo sapiens, UniProt P07550). The format is functional, cell-based.
In assay [13] the target is T1, Alpha-1A adrenergic receptor. It is filed as functional, cell-based. This is another data set of the same source.
In assay [14] the target is T6, Endothelin-1 receptor (Homo sapiens, UniProt P25101).
T6 sequence (P25101 whole entry): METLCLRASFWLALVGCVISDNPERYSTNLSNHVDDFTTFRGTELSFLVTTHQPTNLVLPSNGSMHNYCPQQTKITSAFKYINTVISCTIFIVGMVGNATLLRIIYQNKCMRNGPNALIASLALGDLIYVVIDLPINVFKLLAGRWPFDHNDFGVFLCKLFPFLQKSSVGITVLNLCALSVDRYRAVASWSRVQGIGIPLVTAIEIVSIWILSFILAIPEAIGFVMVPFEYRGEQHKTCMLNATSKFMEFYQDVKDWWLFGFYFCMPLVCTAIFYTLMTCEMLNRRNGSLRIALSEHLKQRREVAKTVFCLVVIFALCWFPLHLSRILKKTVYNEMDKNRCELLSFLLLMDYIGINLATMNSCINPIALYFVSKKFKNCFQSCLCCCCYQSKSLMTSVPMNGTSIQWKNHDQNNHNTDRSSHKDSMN

For assay [15], the target named is Histamine H1 receptor (Homo sapiens, UniProt P35367).

SMILES strings stand for the structures. Where only a bound is given, the exact number is not on record here.
Note: assay procedure not described here.

Chain of Sodium-dependent dopamine transporter (Q01959 whole entry): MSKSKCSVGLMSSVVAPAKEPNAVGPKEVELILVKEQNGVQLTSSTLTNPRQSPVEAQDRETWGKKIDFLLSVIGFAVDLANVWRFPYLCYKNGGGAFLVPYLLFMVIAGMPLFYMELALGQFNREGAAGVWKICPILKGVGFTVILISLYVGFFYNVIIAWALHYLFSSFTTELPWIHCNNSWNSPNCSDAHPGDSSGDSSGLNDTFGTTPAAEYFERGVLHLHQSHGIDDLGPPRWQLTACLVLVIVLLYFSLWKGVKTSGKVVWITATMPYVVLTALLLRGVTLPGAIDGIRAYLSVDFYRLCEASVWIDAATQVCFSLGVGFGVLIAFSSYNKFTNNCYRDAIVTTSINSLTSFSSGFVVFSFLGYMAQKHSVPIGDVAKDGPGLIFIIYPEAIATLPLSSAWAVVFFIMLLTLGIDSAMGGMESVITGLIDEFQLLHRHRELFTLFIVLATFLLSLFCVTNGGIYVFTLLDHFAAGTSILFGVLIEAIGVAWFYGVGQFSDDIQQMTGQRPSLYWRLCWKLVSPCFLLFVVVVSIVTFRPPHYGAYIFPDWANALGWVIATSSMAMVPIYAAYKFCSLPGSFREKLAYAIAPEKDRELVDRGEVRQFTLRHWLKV
Chain of Cannabinoid receptor 1 (P21554 whole entry): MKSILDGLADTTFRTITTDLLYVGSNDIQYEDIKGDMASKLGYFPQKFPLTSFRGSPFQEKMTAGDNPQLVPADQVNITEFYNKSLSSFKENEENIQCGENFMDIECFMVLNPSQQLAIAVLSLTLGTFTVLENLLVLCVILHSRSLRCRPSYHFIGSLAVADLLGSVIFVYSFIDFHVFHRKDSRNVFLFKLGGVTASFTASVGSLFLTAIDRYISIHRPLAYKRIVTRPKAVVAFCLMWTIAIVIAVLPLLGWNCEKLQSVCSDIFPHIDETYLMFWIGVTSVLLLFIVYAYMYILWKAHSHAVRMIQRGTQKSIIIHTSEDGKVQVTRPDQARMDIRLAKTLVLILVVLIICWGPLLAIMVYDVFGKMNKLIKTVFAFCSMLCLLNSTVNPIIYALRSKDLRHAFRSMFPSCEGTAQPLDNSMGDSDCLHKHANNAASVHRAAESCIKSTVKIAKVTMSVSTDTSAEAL
Chain of Beta-2 adrenergic receptor (P07550 whole entry): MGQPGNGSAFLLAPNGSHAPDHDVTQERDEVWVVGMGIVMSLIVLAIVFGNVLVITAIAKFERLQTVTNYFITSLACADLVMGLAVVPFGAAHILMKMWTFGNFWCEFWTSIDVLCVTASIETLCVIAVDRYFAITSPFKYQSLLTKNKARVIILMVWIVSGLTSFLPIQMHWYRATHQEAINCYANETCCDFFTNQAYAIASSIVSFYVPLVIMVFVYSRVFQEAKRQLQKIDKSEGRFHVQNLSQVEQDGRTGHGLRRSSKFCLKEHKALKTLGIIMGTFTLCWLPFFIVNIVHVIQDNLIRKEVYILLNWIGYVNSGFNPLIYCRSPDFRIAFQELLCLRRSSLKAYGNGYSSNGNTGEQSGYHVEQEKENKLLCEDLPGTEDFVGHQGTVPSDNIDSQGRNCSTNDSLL
Chain of Neuronal acetylcholine receptor subunit alpha-4 (P43681 whole entry): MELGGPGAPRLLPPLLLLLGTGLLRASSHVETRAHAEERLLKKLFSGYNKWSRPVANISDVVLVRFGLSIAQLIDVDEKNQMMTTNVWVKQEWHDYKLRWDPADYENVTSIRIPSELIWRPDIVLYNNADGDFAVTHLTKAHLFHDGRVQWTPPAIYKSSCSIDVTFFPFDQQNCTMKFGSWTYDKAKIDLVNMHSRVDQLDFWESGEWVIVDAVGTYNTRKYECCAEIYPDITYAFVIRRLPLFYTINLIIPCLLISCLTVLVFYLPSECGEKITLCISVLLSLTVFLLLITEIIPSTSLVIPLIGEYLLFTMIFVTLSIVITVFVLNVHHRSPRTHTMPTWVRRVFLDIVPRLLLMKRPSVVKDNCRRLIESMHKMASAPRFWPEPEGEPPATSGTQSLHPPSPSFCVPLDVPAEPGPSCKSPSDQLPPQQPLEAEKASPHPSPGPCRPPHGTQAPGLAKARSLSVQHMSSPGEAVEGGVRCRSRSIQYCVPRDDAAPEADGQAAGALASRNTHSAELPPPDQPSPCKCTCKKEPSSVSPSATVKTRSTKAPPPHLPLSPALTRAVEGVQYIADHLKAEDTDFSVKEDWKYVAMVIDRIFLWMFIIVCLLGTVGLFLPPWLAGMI
T4 sequence (P35372 whole entry): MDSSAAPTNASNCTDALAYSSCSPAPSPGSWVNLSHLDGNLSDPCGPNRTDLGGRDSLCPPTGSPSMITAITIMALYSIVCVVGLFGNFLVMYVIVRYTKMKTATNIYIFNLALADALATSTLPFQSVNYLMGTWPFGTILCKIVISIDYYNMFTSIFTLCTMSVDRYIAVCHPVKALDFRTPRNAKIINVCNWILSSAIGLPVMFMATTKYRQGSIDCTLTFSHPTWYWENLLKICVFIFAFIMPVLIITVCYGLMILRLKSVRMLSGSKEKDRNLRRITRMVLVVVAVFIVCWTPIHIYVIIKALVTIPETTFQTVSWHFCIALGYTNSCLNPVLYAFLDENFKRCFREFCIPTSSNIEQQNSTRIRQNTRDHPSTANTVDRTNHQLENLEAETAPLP
Chain of Kappa-type opioid receptor (P41145 whole entry): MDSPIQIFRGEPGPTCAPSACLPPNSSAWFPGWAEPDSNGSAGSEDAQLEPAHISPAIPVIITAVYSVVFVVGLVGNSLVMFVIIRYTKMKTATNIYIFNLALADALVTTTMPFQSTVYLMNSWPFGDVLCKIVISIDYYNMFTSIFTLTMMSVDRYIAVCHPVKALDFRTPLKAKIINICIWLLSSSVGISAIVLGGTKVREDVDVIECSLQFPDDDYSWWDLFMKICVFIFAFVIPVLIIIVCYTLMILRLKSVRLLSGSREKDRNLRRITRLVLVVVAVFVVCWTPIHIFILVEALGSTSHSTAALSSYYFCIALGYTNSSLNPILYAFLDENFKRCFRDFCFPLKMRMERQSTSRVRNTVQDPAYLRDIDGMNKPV
Chain of Histamine H1 receptor (P35367 whole entry): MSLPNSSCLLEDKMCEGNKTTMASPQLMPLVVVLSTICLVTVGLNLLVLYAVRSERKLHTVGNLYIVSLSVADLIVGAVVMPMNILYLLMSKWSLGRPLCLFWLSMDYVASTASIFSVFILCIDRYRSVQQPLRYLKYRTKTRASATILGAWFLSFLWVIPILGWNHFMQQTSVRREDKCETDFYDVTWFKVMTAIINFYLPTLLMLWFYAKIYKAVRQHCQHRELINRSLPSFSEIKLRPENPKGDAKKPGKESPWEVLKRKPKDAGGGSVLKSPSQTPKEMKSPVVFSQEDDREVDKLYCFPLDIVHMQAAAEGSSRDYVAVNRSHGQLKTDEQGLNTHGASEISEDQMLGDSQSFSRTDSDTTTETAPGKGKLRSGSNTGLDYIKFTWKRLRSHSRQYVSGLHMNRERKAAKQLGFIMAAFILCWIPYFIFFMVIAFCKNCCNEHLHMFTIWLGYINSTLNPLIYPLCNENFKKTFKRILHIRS

As for `COc1ccc(C2C(=O)c3ccccc3C2=O)cc1` [ANISINDIONE], the AC50 in assay [1] was above 30 µM; in [2] it was above 10 µM; in [3], above 10 µM; in [4], above 10 µM; in assay [5], above 10 µM; in [6], above 10 µM. Besides, the AC50 was above 30 µM in [7], above 10 µM in assay [8], above 30 µM in assay [9] and 91 µM in assay [10].

For `Cc1cc(=O)n(-c2ccccc2)n1C` [ANTIPYRINE], the AC50 in assay [11] is above 30 µM; in [1], above 10 µM; in assay [12], above 30 µM; in assay [2] it was above 10 µM; in [3], above 10 µM; in assay [5], above 30 µM. The AC50 in [6] is above 10 µM; in [8] it was above 30 µM; in [9], above 30 µM; in assay [10] it was above 10 µM; in [13] it was above 30 µM.

In the case of `O=C(CCCN1CCC(O)(c2ccc(Br)cc2)CC1)c1ccc(F)cc1` [BROMPERIDOL], the AC50 is above 30 µM in [11]; above 30 µM in assay [12]; above 30 µM in assay [2]; above 30 µM in assay [14]; 1.2 µM in [4]; above 30 µM in [5]. Besides, the AC50 was 10 µM in assay [6], 2 µM in assay [7], above 30 µM in [10] and 0.28 µM in assay [13].

Take `C[C@@H]1C[C@H]2[C@@H]3CCC4=CC(=O)C=C[C@]4(C)[C@@]3(F)[C@@H](O)C[C@]2(C)[C@@]1(O)C(=O)CO` [DEXAMETHASONE]: the AC50 in assay [1] is above 30 µM; in assay [2], above 30 µM; in assay [3] it was above 10 µM; in [4] it was above 10 µM; in [5] it was above 30 µM; in [6], above 10 µM. The AC50 in assay [7], in assay [8], in assay [9] and in [10] was above 30 µM each time.

Regarding `CCOC(=O)c1ncn2c1CN(C)C(=O)c1cc(F)ccc1-2` [FLUMAZENIL], the AC50 is above 30 µM in [11]; above 10 µM in [1]; above 30 µM in assay [2]; above 30 µM in assay [3]; above 10 µM in [4]; above 30 µM in [5]. The AC50 in [6], in assay [7], in assay [8], in assay [9], in [10] and in assay [13] was above 30 µM throughout.

Take `NNC(=O)c1ccncc1` [ISONIAZID]: the AC50 in assay [11] was above 30 µM; in assay [1] it was above 10 µM; in assay [2] it was above 30 µM; in assay [3] it was above 30 µM; in assay [14], above 30 µM; in assay [4], above 10 µM. Moreover, the AC50 in [5], in assay [6], in [7], in [8], in assay [9] and in [10] was above 30 µM each time. Moreover, in [13], the AC50 is above 30 µM.

Consider `COc1ccc2cc(CCC(C)=O)ccc2c1` [NABUMETONE], for which the AC50 in assay [11] is above 30 µM; in [1] it was above 30 µM; in [2] it was above 10 µM; in assay [3], above 10 µM; in assay [4], above 10 µM; in assay [5], above 10 µM. In addition, the AC50 in [6] is above 10 µM; in assay [7], above 30 µM; in assay [8], 7.8 µM; in assay [9], above 30 µM; in [13], above 30 µM.

With `C[C@]12C/C(=C/O)C(=O)C[C@@H]1CC[C@@H]1[C@@H]2CC[C@@]2(C)[C@H]1CC[C@]2(C)O` [OXYMETHOLONE], the concentration at half-maximal activity (AC50) in assay [11], in assay [12], in [2], in assay [14], in assay [5] and in [6] was above 30 µM throughout. Also, the AC50 in [7], in assay [8], in assay [10] and in [13] was above 30 µM in each case.

On to `CCCN(CCC)S(=O)(=O)c1ccc(C(=O)O)cc1` [PROBENECID], for which the AC50 in [1], in assay [2], in assay [3], in [4], in assay [5] and in [6] was above 10 µM throughout. For the same molecule, the AC50 was above 10 µM in assay [8], above 30 µM in assay [9] and above 10 µM in assay [10].

For the molecule `Cc1cc(C)nc(NS(=O)(=O)c2ccc(N)cc2)n1` [SULFAMETHAZINE], the AC50 in assay [1] was above 30 µM; in assay [2], above 10 µM; in [3], above 10 µM; in [4], above 10 µM; in [5], above 10 µM; in assay [6] it was above 10 µM. The AC50 in assay [7] was above 30 µM; in assay [8], above 10 µM; in assay [9], above 30 µM; in [10] it was above 30 µM.

For the molecule `CCOC(=O)[C@@H](N)Cc1ccc(-c2cc(O[C@H](c3ccc(Cl)cc3-n3ccc(C)n3)C(F)(F)F)nc(N)n2)cc1` [TELOTRISTAT ETHYL], the AC50 in assay [11], in [12], in [2], in assay [14], in [15] and in [5] was above 30 µM each time. Besides, the concentration at half-maximal activity (AC50) in assay [6] is above 30 µM; in assay [8], 18 µM; in assay [9], above 30 µM; in [10], above 30 µM; in [13], above 30 µM.

A word on the AC50: it is the concentration giving half of the maximal activity seen.
